Laboratory results: patent publication US20250387388A1, “COMPOUND AS TRK INHIBITOR AND/OR RET INHIBITOR AND USE THEREOF” (Medinno Pharmaceutical Technology (Zhuhai) Co., Ltd., priority 2022, published 2025)

Key:
adipocytes = assay: Lipolysis in vitro in adipocytes; assay type: cell-based, C57BL/6 mouse; conditions: 5 μM
Description: Newly extracted neonatal C57BL/6 mouse skin fibroblasts (specific operational steps can be found in the literature: Cell Reports (2023)/doi: 10.1016/j.celrep.2023.112647) were plated and cultured in petri dishes until the cell density reached the highest and contact inhibition. Differentiation medium (DMEM+10% FBS+1× antibiotic; specific formula can be found in the literature: Cell Reports (2023)/doi: 10.1016/j.celrep.2023.112647) was then added to induce the generation of new adipocytes. […] The control group received an equal volume of DMSO. The transformation of adipocytes was observed using a Leica inverted phase contrast microscope.

[1] = test system: phenol-induced cervicitis model in rats; assay: Phenol-induced cervicitis model in rats; assay type: in vivo, SD rats
Description: • Blank Control Group (untreated) (N=5+2 rats) • Cervicitis Model Group (vehicle treatment: 20% DMA+65% PEG400+15% H2O) (N=8+2 rats) • Cervicitis Model+Positive Control Drug Group (Jieeryin lotion (1:5 dilution), 2 times/day, for 7 consecutive days) (N=8 rats) • Cervicitis Model+Low-Dose MDI-1228 Compound Lotion Group (dose: 3 mg/kg/time, 2 times/day, for 7 consecutive days) (N=8 rats) • Cervicitis Model+Medium-Dose MDI-1228 Compound Lotion Group (dose: 10 mg/kg/time, 2 times/day, for 7 consecutive days) (N=8 rats) • Cervicitis Model+High-Dose MDI-1228 Compound Lotion Group (dose: 30 mg/kg/time, 2 times/day, for 7 consecutive days) (N=8 animals) • Experimental Environment: Temperature 20° C.-26° C., humidity 40%-70%.
SD rats were acclimated for one week. After anesthesia with isoflurane, the rats were fixed in a supine position on the operation table with their limbs secured. A 1 mL syringe with a blunt needle was inserted approximately 1 cm into the rat's vagina, and 0.1 mL of 25% phenol slurry was slowly injected. The vaginal opening was immediately plugged with a sterile cotton ball, and the rat was kept in a head-down and tail-high position for 20 minutes. The injection was performed every 2 days, for a total of 3 times. The vaginal opening of the rats was observed, and the model was considered successful if there was white secretion, vaginal congestion, and swelling.
The successfully modelled rats were randomly divided into 6 groups. Animals in each group were treated according to their group assignment. The blank group (untreated) received no treatment. The positive control group was administrated with Jieeryin lotion (1:5 dilution) for vaginal irrigation twice a day, for 7 consecutive days. The low, medium, and high-dose MDI-1228 compound lotions were used for vaginal irrigation twice a day, for 7 consecutive days. The model group was given an equal amount of vehicle treatment, with the same way and duration as the test drug groups.
Clinical Symptoms Observation: The general condition of the rats (activity, diet, mental state) was continuously observed, and the rats were weighted before and after administration. Daily observations and recordings were made of changes in the local area and secretions of the rat's vulva, whether the vaginal opening is dry, and whether there is congestion, swelling in the vulva and vaginal mucosa, and whether there is vaginal fluid blood. Scoring was conducted according to the following table.
Organ Weight and Organ Index Calculation: After the last administration, the rats were sacrificed the next day, and the uterus was removed, with fat tissue and mesentery dissected away, and the weight of the cervix (from the vaginal opening to the bifurcation of the double uterus) and the liver and spleen were measured to calculate the organ index.
Pathological Detection: ELISA detection for serum markers IL-4, IL-6, IL-1β, TNF-α; ELISA detection for plasma CP; biochemical detection for MDA and T-SOD in cervical tissue.
HE Staining: Tissue samples from animal vaginal, cervical, and uterine were excised, fixed in 4% paraformaldehyde, dehydrated, embedded in paraffin, and sectioned and HE stained for observation of histopathological morphology changes. The reagents and instruments required for HE staining included: Hematoxylin staining solution (AR 11800-1, BOSTER); Eosin staining solution (ARl1800-2, BOSTER); Ultra-clean advanced mounting medium (YZB, BASO); Scott's blueing solution (G1865, Solarbio), etc. Medication refrigerator (BYC-310, Shandong Bokai Biotech); Microscope (CX41 OLYMPUS); Microtome (BQ-318D, Berne); Electric heating blast drying oven (DHG-9070A. Hengke Scientific Instrument Co., Ltd.). The taken tissue was rinsed with running water for several hours, dehydrated through a series of ethanol solutions (70%, 80%, 90%), and then treated with a mixture of pure alcohol and xylene at a ratio of 1:1 for 15 minutes, followed by xylene I for 15 minutes and xylene II for 15 minutes (until transparent). […]

[2] = 30 mg/kg/time, 2 times/day, 7 days
[3] = MDI-1228 at various doses (3, 10, 30 mg/kg)

CCc1cc(O)c(F)cc1-c1ccc2c(-c3nc4c([nH]3)CN(C(=O)N3CC[C@H](O)C3)C4)n[nH]c2c1 [MDI-1228, (S)-(2-(6-(2-ethyl-5-fluoro-4-hydroxyphenyl)-1H-indazol-3-yl)-4,6-dihydropyrrolo[3,4-d]imidazol-5-(1H)-yl)(3-hydroxylpyrrolidin-1-yl)ketone]
Lipolysis of differentiated mature adipocytes (phase contrast images) (adipocytes): promotes the lipolysis of adipocytes into smaller lipid droplets | Vaginal, cervical and uterine tissue HE staining ([1]; 3 mg/kg/time, 2 times/day, 7 days): still showed significant inflammatory cell infiltration in the entire tissue structure | Vaginal, cervical and uterine tissue HE staining ([1]; 10 mg/kg/time, 2 times/day, 7 days): marked reduction in inflammatory cells | Comprehensive score of cervicitis ([1]; 30 mg/kg/time vaginal irrigation, 2 times/day, 7 days, vs. model group): significantly reducing the comprehensive score of cervicitis | Cervical index [1, 2]: significantly reduced | Reduction of area under the continuous scoring curve, edema score [1, 2]: 19.61% | Reduction of area under the continuous scoring curve, erythema score [1, 2]: 29.99% | Reduction of area under the continuous scoring curve, secretion score [1, 2]: 21.05% | Reduction of area under the continuous scoring curve, vulvar inflammation score [1, 2]: 23.42% | Vaginal, cervical and uterine tissue HE staining [1, 2]: showing the best effect | Conditions of erythema, edema, and secretion [1, 3]: can improve the conditions of erythema, edema, and secretion | Levels of inflammatory factors [1, 3]: decrease the levels of inflammatory factors IL-10, IL-4, IL-6, and TNF-α
